Experimental data published in ChEMBL document CHEMBL1134261, “Synthesis of anticonvulsive AMPA antagonists: 4-oxo-10-substituted-imidaz” (Bioorg Med Chem Lett, 2001).

What was measured:
Mus musculus [1] = assay: In vivo effective dose required to protect 6 male CD1 mice against tonic convulsions following ip administration for a pretreatment time of 30 min; format: functional
Glutamate NMDA receptor = assay: Displacement of [3H]DCKA from glycine NMDA receptor of rat cortical membranes; format: cell membranes, Membrane
Xenopus sp. = species on record: Xenopus sp.; assay: Inhibition of currents generated by 50 uM kainate in Xenopus oocytes injected with rat brain mRNA; format: functional, organism-based, frog
[2] = molecular target: Glutamate receptor ionotropic, AMPA (Rattus norvegicus, UniProt P19490+P19491+P19492+P19493); assay: Displacement of [3H]AMPA from Ionotropic glutamate receptor AMPA of rat cortical membranes; format: cell membranes, Membrane
Mus musculus [3] = assay: In vivo effective dose required to protect 6 male CD1 mice against tonic convulsions following iv administration for a pretreatment time of 5 min; format: functional
Mus musculus [4] = assay: In vivo effective dose required to protect 6 male CD1 mice against tonic convulsions following iv administration for a pretreatment time of 60 min; format: functional
Mus musculus [5] = assay: In vivo effective dose required to protect 6 male CD1 mice against tonic convulsions following iv administration for a pretreatment time of 30 min; format: functional

Row | Compound | IC50 (Xenopus sp.) [nM] | ED50 (Mus musculus [1]) [mg/kg] | IC50 (Glutamate NMDA receptor) [nM] | IC50 [2] [nM] | ED50 (Mus musculus [3]) [mg/kg] | ED50 (Mus musculus [4]) [mg/kg] | ED50 (Mus musculus [5]) [mg/kg]
1 | O=C(Nc1ccccc1)NC1c2ccccc2-c2nc(O)c3nc(C(=O)O)cn3c21 (configuration not stated) | 30 | 80 | 18 | 159 | – | – | –
2 | O=C(O)CCCO/N=C1\c2ccccc2-c2nc(O)c3nc(C(=O)O)cn3c21 | 5 | > 80 | 1400 | 44 | – | – | –
3 | O=Nc1c2n3cc(C(=O)O)[nH]c3c(O)nc-2c2ccccc12 | 130 | > 80 | 593 | 167 | – | – | –
4 | O=C(O)c1cn2c3c(nc(O)c2n1)-c1ccccc1C3N1CC=CC1=O (configuration not stated) | – | 20 | 184 | 23 | 7.7 | – | –
5 | O=C(O)c1cn2c3c(nc(O)c2n1)-c1ccccc1C3n1cccc1 (configuration not stated) | 60 | 26 | 32 | 55 | 10 | 17 | 15
6 | O=C(O)c1cn2c3c(nc(O)c2n1)-c1ccccc1C3=O | 320 | – | 422 | 580 | – | – | –

The next lines start with results.

Row | IC50 (Xenopus sp.) [nM] | Compound | ED50 (Mus musculus [1]) [mg/kg] | IC50 (Glutamate NMDA receptor) [nM] | IC50 [2] [nM] | ED50 (Mus musculus [3]) [mg/kg] | ED50 (Mus musculus [4]) [mg/kg] | ED50 (Mus musculus [5]) [mg/kg]
7 | 22 | CC1(CCCCC(=O)O)c2ccccc2-c2nc(O)c3nc(C(=O)O)cn3c21 (configuration not stated) | 10 | 134 | 242 | 9.5 | 15 | –
8 | 6 | O=C(O)CCC(=O)NC1c2ccccc2-c2nc(O)c3nc(C(=O)O)cn3c21 (configuration not stated) | 2.5 | 230 | 35 | 1.7 | 3 | 1.7
9 | 130 | NC1c2ccccc2-c2nc(O)c3nc(C(=O)O)cn3c21 (configuration not stated) | 19 | 158 | 93 | 7 | > 40 | 25
10 | 31 | O=c1[nH]c2cc(C(F)(F)F)c(N3CCOCC3)cc2n(CP(=O)(O)O)c1=O [FANAPANEL] | 36 | > 10000 | – | 36 | – | –
11 | 260 | O=c1[nH]c2cc(-n3ccnc3)c([N+](=O)[O-])cc2[nH]c1=O [YM-90K] | – | – | – | 6.2 | 40 | 24
12 | 29 | O=C(O)c1cn2c3c(nc(O)c2n1)-c1ccccc1C3 | – | – | – | – | – | –
13 | 233 | O=C(O)[C@@H]1C[C@H]2C[C@@H](CCc3nn[nH]n3)CC[C@H]2CN1 [TEZAMPANEL ANHYDROUS] | – | – | – | – | – | –
14 | 1800 | Oc1nc2c(n3ccnc13)Cc1ccccc1-2 | – | – | – | – | – | –
